Data published in patent US7919464B2, “Use of a peptide that interacts with αvβ3 integrin of endothelial cell” (Kyungpook National University Industry-Academic Cooperation …, priority 2003, dated 2011).
Ends that are not written are not given here.

B1: ΔH1H2(6): smallest deletion mutant fragment, amino acids 548-614 of SEQ ID NO: 1, SEQ ID NO: 10 (protein, listed as Homo sapiens)
chain: RALPPRERSRLLGDAKELANILKYHIGDEILVSGGIGALVRLKSLQGDKLEVSLKNNVVSVNKEPVA

Columns and labels:
HUVECs [1] = assay: HUVECs adhesion to plates coated with βig-h3, its fas-1 domains or mutants; assay type: cell-based, human; settings: 10 μg/ml protein coated on plate; attached cells by absorbance at 405 nm; control BSA
Description: Cell adhesion assay was performed according to the method described by Kim, J.-E. et al., J. Biol. Chem., 277:4615946165, 2002. For this purpose, 10 μg/ml of each of the recombinant proteins (βig-h3 His-β-b, βig-h3 D-I, βig-h3 D-II, βig-h3 D-III and βig-h3 D-IV) prepared in Example 1 was placed into a flat-bottomed 96-well ELISA (enzyme-linked immunosorbent assay) plate (Costar, Corning Inc., NY) and then incubated overnight at 4° C., to coat the surface of the plate. As a control, 2% BSA was coated on the plate. Then, the plate was treated with PBS (phosphate-buffered saline) containing 2% BSA, and blocked at room temperature for one hour.
Meanwhile, HUVECs (human umbilical vein endothelial cells; Clonetics, San Diego, Calif.) were incubated in EGM medium (Clonetics, San Diego, Calif.) containing 2% FBS (Fetal Bovine Serum) under a condition of 37° C. and 5% CO2. The incubated cells were suspended in medium at a density of 3×10^5 cells/ml, and 0.1 ml of the cell suspension was added to each well of the plate. Next, the cells were incubated at 37° C. for 30 minutes and washed one time with PBS buffer to remove cells which had not been attached to the plate. Attached cells were added with 50 mM citrate buffer (pH 5.0) containing 3.75 mM p-nitrophenyl-N-acetyl β-D-glycosaminide and 0.25% Triton X-100, and incubated at 37° C. for one hour. Thereafter, 50 mM glycine buffer (pH 10.4) containing 5 mM EDTA was added to block the activity of the enzyme. The absorbance was measured at a 405-nm in a Bio-Rad model 550 microplate reader. Here, the higher the number of cells adhered to the plate, the higher the absorbance.
Each of the deletion mutants was generated by PCR using a cDNA template encoding the fourth fas-1 domain (SEQ ID NO: 5) (Kim, J.-E. et al., J. Biol. Chem., 275:30907-30915, 2000). Each of the PCR-amplified DNA fragments was cloned into the EcoRV/Xhol sites of the pET-29b(+) vector (Novagen; Madison, Wis.). The mutations were confirmed by sequence analysis, and the deletion mutants were expressed and purified according to a prior method (Kim, J.-E., et al., J. Cell. Biochem., 77:169-178, 2000). Thereafter, the cell adhesion activity of each of the deletion mutants was tested in the same manner as in Example 2.
Previously, the present inventors reported that an YH motif, which contains tyrosine-histidine residues highly conserved in the fragment corresponding to amino acids 548-614 of SEQ ID NO: 1, and several leucine and isoleucine residues adjacent to the tyrosine-histidine residues, binds to the αvβ5 integrin (Kim, J.-E., et al., J. Biol. Chem., 277:46159-46165, 2002). Thus, the present inventors suspected that the YH motif may also interact with the αvβ3 integrin to mediate endothelial cell adhesion. For this reason, in the present invention, the tyrosine-histidine residues conserved in the fas-1 domains, and/or the leucine and isolucine residues adjacent to the tyrosine-histidine residues, were substituted in various combinations by alanine or serine (Kim, J.-E., et al., J. Biol. Chem. 277:4615946165, 2002)(see FIG. 4b). The amino acid sequences of the prepared YH motif mutants are shown in SEQ ID NO: 17 to SEQ ID NO: 22. The mutations were confirmed by sequence analysis. Then, the substitution mutants were expressed and purified according to a known method (Kim, J.-E., et al., J. Cell. Biochem., 77:169-178, 2000). The substitution mutants were tested for their cell adhesion activity according to the same manner as in Example 2.

HUVECs [2] = assay: HUVECs migration assay in transwell plate coated with βig-h3; assay type: cell-based, human; settings: 500 μM or 1 mM peptide of SEQ ID NO: 26
Description: Firstly, to examine whether βig-h3 is involved in the migration of endothelial cells, the present inventors performed cell migration assay. The cell migration assay was performed in a transwell plate (8 μm pore size, Costar, Cambridge, Mass.). The undersurface of the membrane was coated with the recombinant βig-h3 His-β-b protein (10 μg/ml) prepared in Example 1 at 4° C., and then, blocked for 1 hour at room temperature with PBS buffer containing 2% BSA. Meanwhile, HUVECs were added with an anti-αvβ3 antibody (LM609) or an anti-αvβ5 antibody (P1F6) and preincubated at 37° C. for 30 minutes. A control was added with mouse IgG. Then, the HUVECs preincubated with the antibody were suspended in medium at a density of 3×10^5 cells/ml, and 0.1 ml of the cell suspension was added to the upper compartment of the filter. The cells were allowed to migrate at 37° C. for 6-8 hours.
Migration was terminated by removing the cells from the upper compartment of the filter with a cotton swab. The filters were fixed with 8% glutaraldehyde and stained with crystal violet. The extent of cell migration was determined by light microscope, and within each well, cell counting was done in nine randomly selected fields HPF (Microscopic high power fields, ×200).
Then, the present inventors examined whether the migration of endothelial cells is inhibited by the YH18 synthetic peptide. […]

C57/BL6 mice = assay: In vivo Matrigel plug assay; settings: subcutaneous, 7 days
Description: In the present invention, the angiogenesis-inhibitory effect of the YH18 synthetic peptide, which had been proven in vitro assay according to Example 8-1, was assayed in vivo. An in vivo Matrigel plug assay was performed according to the method described by Maeshima, Y. et al., J. Biol. Chem., 275:23745-23750, 2000. 5-6 week old male C57/BL6 mice purchased from Hyochang scientific company, Korea, were used.
First, Matrigel (BD Biosciences, MA) was mixed with 20 units/ml heparin, 150 ng/ml bFGF (basic fibroblast growth factor, R&D system, International, Inc), and a YH18 synthetic peptide represented by SEQ ID NO: 26. As a control to the YH18 synthetic peptide, an YH18-con. peptide was used, and a control to peptide treatment was treated with 5% DMSO (solvent). The Matrigel mixture was injected subcutaneously to the C57/BL6 mice. After 7 days, the mice were sacrificed, and the Matrigel plugs were removed and fixed in 4% paraformaldehyde. The Matrigel plugs were buried in paraffin, sectioned and stained with H&E. Their sections were examined by light microscope, the number of blood vessels from 4-6 HPF (high power fields; ×200) was counted and averaged. Each group consisted of 3 or 4 Matrigel plugs.

HUVECs [3] = test system: HUVECs
Description: First, 100 μl of Matrigel (Chemicon, International Inc, Temecula, Calif.) was added to each well of a 96-well plate and allowed to polymerize. HUVECs were suspended in medium at a density of 3×10^5 cells/ml, and 0.1 ml of the cell suspension was added to each well of the well plate coated with Matrigel. At this time, 500 μM or 1 mM of the YH18 synthetic peptide represented by SEQ ID NO: 26 was added together. A control to peptide treatment was treated with 5% DMSO (solvent), and a control to the YH18 synthetic peptide was treated with the YH18-con. peptide represented by SEQ ID NO: 27. Thereafter, the cells were incubated at 37° C. for 16-18 hours. The cells were photographed, and endothelial tubes were counted and averaged.

Molecule | endothelial cell (HUVECs) adhesion activity (HUVECs [1]) | also measured
D-IV-AAR: D-IV mutant, tyrosine-histidine to alanine-alanine and isoleucine/leucine on one side to serine (GDAKELANILKAASGDESSVSGGIGALVR; D-IV-AAR) | somewhat lower than those of D-IV-LAA and D-IV-AAR | 
D-IV-LAA: D-IV mutant, tyrosine-histidine to alanine-alanine and isoleucine/leucine on one side to serine (GDAKESANSSKAAIGDEILVSGGIGALVR; D-IV-LAA) | somewhat lower than those of D-IV-LAA and D-IV-AAR | 
D-IV-L: D-IV mutant, leucine and isoleucine residues adjacent to one side of tyrosine-histidine substituted with serine (GDAKESANSSKYHIGDEILVSGGIGALVR; D-IV-L) | equal to those of the fas-1 domain (D-IV) and its fragment (H1H2(6)) | 
D-IV-AA: D-IV mutant, tyrosine-histidine residues substituted with alanine-alanine (GDAKELANILKAAIGDEILVSGGIGALVR) | equal to those of the fas-1 domain (D-IV) and its fragment (H1H2(6)) | 
D-IV-LYHR: D-IV mutant, all isoleucine and leucine residues on both sides of tyrosine-histidine substituted with serine (GDAKESANSSKYHSGDESSVSGGIGALVR; D-IV-LYHR) | reduced to half that of the fas-1 domain | 
KELANILKYHIGDEILVS [YH18 synthetic peptide] |  | inhibition of HUVECs migration toward βig-h3 by YH18 synthetic peptide (HUVECs [2]): inhibited the migration of endothelial cells toward βig-h3; number of blood vessels in Matrigel plug (C57/BL6 mice; 500 μM peptide in Matrigel with bFGF and heparin): significant reduction in the number of blood vessels; inhibition of angiogenesis in Matrigel plug (C57/BL6 mice; 1 mM peptide in Matrigel with bFGF and heparin): complete inhibition of angiogenesis; IC50 (HUVECs [3]): 500 µM; inhibition of HUVECs tube formation (HUVECs [3]; 500 μM or 1 mM peptide, dose-dependent): selectively inhibited
D-IV-R: D-IV mutant, leucine and isoleucine residues adjacent to one side of tyrosine-histidine substituted with serine (GDAKELANILKYHSGDESSVSGGIGALVR; D-IV-R) | equal to those of the fas-1 domain (D-IV) and its fragment (H1H2(6)) | 
B1 | still retains endothelial cell adhesion activity | 
